Experimental data: publication PMC4541002, “Quantification of Niacin and Its Metabolite Nicotinuric Acid in Human Plasma by LC-MS/MS: Application to a Clinical Trial of a Fixed Dose Combination Tablet of Niacin Extended-Release/Simvastatin (500 mg/10 mg) in Healthy Chinese Volunteers” (International Journal of Analytical Chemistry, 2015)
Where two headings read alike, the source gives them in different places.

Legend:
[1] = Pharmacokinetics of NA and NUA in plasma after single oral doses of Niacin extended-release/Simvastatin tablets in healthy Chinese volunteers; format: in vivo; conditions: for CLz/F: human plasma; for AUC(0-t) / AUC(0-inf) / Tmax / half-life / Cmax / k el / MRT last / Vd/F: both sexes, human, po; for k el: n = 12, read-out: K e (converted); for MRT last: n = 12, read-out: MRT0–t; for Vd/F: n = 12, read-out: V z/F
Description: Extraction of NA and NUA was carried out by protein precipitation. First, 50 μL of the IS working solution (1000 ng/mL 5-FU) and 50 μL of water were added to a 100 μL aliquot of human plasma. The sample mixture was then deproteinized with 250 μL of acetonitrile, and the precipitate was removed by centrifugation at 15000 rpm for 10 min. The supernatant was transferred to another tube and evaporated under a gentle stream of nitrogen at 40°C until it is dry. The residue was reconstituted in 150 μL mobile phase and vortex-mixed for 30 sec. An aliquot of 40 μL of the solution was injected into the LC-MS/MS system for analysis.
Before conducting the study all subjects provided written informed consent to participate. The study was designed as randomized, open-label, crossover, and single dose periods with a 7-day washout between each treatment. A total of 12 healthy Chinese volunteers (6 males and 6 females) aged 20 to 35 years with a body mass index between 19 and 24 kg/m^2 were recruited. Subjects were randomized into three groups (2 males and 2 females for each treatment). They were orally dosed with Niacin extended-release/Simvastatin 1, 2, and 3 tablets once daily, separately. The venous blood samples were collected at time intervals (0, 0.33, 0.66, 1.0, 1.5, 2.0, 2.5, 3.0, 3.5, 4.0, 5.0, 6.0, 8.0, 12, and 24 h) in separate vacutainers during the treatment. All blood samples were centrifuged at 3000 ×g for 10 min and the plasma was separated and kept frozen at −20°C until analysis.
The pharmacokinetic parameters were calculated with data analysis system (DAS) program (version 2.0, Mathematical Pharmacology Professional Committee, Shanghai, China). The maximum plasma concentration (C max) and the corresponding time (T max) were obtained from observed data. The terminal elimination rate constant (K e) was estimated with least-squares regression of values in the terminal log-linear region of plasma concentration-time curves, and the terminal elimination half-life (t 1/2) was calculated to be 0.693/K e. The area under the curve from time zero to the last sampling time (AUC0−t) was determined using the linear trapezoidal rule.

[2] = Stability of stock solutions of NA and NUA; format: physicochemical
Description: Two separate stock solutions of the analytes were prepared at 1 mg/mL in methanol-water (50 : 50, v/v) and stored at −20°C. A series of standard working solutions for NA and NUA were prepared by diluting stock solution with methanol-water (50 : 50, v/v). The 5-FU solution was brought to a final concentration of 1000 ng/mL in acetonitrile from 1 mg/mL in acetonitrile. All working solutions were stored at 4°C and brought to room temperature before use. Calibration standards and quality control samples were prepared by spiking 50 μL of the working solutions and 50 μL of IS into 100 μL of drug-free human plasma. Matrix-matched NA and NUA calibration standards were prepared in plasma at concentrations of 5, 10, 20, 60, 200, 600, and 800 ng/mL, respectively. Similarly, NA and NUA quality control (QC) samples were prepared separately in plasma to give concentrations of 10, 60, and 600 ng/mL.

[3] = for Found C / Found R.E.: n = 3; for stability in human plasma: variety of storage and process conditions (Tables 2 and 3)
Description: The following stability tests were evaluated: (1) stability of the stock solutions of the analytes; (2) freeze and thaw stability of the analytes in the plasma from −20°C to room temperature for three cycles; (3) short-term stability of the analytes in plasma at room temperature before extraction for 3 h and the ready-to-inject samples (after extraction, in the mobile phase) to the autosampler rack for 4 h; and (4) long-term stability of the analytes in matrix stored at −20°C for two months. All stability tests samples at three concentration levels (10, 60, and 600 ng/mL) were analyzed in triplicate and the deviations were determined in relation to freshly prepared samples.

[4] = 1 tablet (500 mg/10 mg), mean ± S.D., n = 12
[5] = 2 tablets (1000 mg/20 mg), mean ± S.D., n = 12
[6] = 3 tablets (1500 mg/30 mg), mean ± S.D., n = 12
[7] = plasma, 1 tablet (500 mg/10 mg), mean ± S.D., n = 12
[8] = plasma, 1 tablet (500 mg/10 mg), mean ± S.D.
[9] = plasma, 2 tablets (1000 mg/20 mg), mean ± S.D., n = 12
[10] = plasma, 2 tablets (1000 mg/20 mg), mean ± S.D.
[11] = plasma, 3 tablets (1500 mg/30 mg), mean ± S.D., n = 12
[12] = plasma, 3 tablets (1500 mg/30 mg), mean ± S.D.
[13] = seven days at −20°C versus before
[14] = six h at room temperature versus before
[15] = extracted plasma sample in mobile phase, autosampler for 4 h (24°C), added 10.0 ng/mL
[16] = extracted plasma sample in mobile phase, autosampler for 4 h (24°C), added 60.0 ng/mL
[17] = extracted plasma sample in mobile phase, autosampler for 4 h (24°C), added 600.0 ng/mL
[18] = human plasma, long-term (2 months at −20°C), added 10.0 ng/mL
[19] = human plasma, long-term (2 months at −20°C), added 60.0 ng/mL
[20] = human plasma, long-term (2 months at −20°C), added 600.0 ng/mL
[21] = human plasma, short-term (3 h at 24°C), added 10.0 ng/mL
[22] = human plasma, short-term (3 h at 24°C), added 60.0 ng/mL
[23] = human plasma, short-term (3 h at 24°C), added 600.0 ng/mL
[24] = human plasma, three freeze/thaw cycles, added 10.0 ng/mL
[25] = human plasma, three freeze/thaw cycles, added 60.0 ng/mL
[26] = human plasma, three freeze/thaw cycles, added 600.0 ng/mL
[27] = in vivo, 1 tablet (500 mg/10 mg), mean ± S.D., n = 12
[28] = in vivo, 1 tablet (500 mg/10 mg), mean ± S.D.
[29] = in vivo, 2 tablets (1000 mg/20 mg), mean ± S.D., n = 12
[30] = in vivo, 2 tablets (1000 mg/20 mg), mean ± S.D.
[31] = in vivo, 3 tablets (1500 mg/30 mg), mean ± S.D., n = 12
[32] = in vivo, 3 tablets (1500 mg/30 mg), mean ± S.D.

O=C(O)c1cccnc1 [NA, 3-pyridine-carboxylic acid]
CLz/F [1, 4]: 1271 ± 850.0 L/h | CLz/F [1, 5]: 744.0 ± 356.0 L/h | CLz/F [1, 6]: 526.0 ± 421.0 L/h | AUC(0-t) ([1]; plasma, 1 tablet): 349 ± 192 ng·h/mL | AUC(0-inf) [1, 7]: 518 ± 226 ng·h/mL | AUC(0-t) [1, 7]: 385 ± 192 ng·h/mL | Tmax [1, 7]: 2.94 ± 2.63 h | half-life [1, 7]: 8.8 ± 8.49 h | Cmax ([1]; plasma, 1 tablet (500 mg/10 mg), mean ± S.D., n = 12, read-out: C max): 160 ± 125 ng/mL | k el [1, 8]: 5.28e-05 s⁻¹ | MRT last [1, 8]: 5.37 ± 1.96 h | Vd/F [1, 8]: 13700 ± 11600 L | Cmax ([1]; plasma, 1 tablet, read-out: mean maximum plasma concentration (C max)): 160 ± 125 ng/mL | AUC(0-t) ([1]; plasma, 2 tablets): 1540 ± 957 ng·h/mL | AUC(0-inf) [1, 9]: 1720 ± 923 ng·h/mL | AUC(0-t) [1, 9]: 1540 ± 957 ng·h/mL | Tmax [1, 9]: 1.82 ± 1.69 h | half-life [1, 9]: 7.33 ± 8.68 h | Cmax ([1]; plasma, 2 tablets (1000 mg/20 mg), mean ± S.D., n = 12, read-out: C max): 904 ± 487 ng/mL | k el [1, 10]: 0.000119 s⁻¹ | MRT last [1, 10]: 4.4 ± 2.21 h | Vd/F [1, 10]: 7650 ± 9320 L | Cmax ([1]; plasma, 2 tablets, read-out: C max): 904 ± 487 ng/mL | AUC(0-t) ([1]; plasma, 3 tablets): 6020 ± 6580 ng·h/mL | AUC(0-inf) [1, 11]: 6100 ± 6550 ng·h/mL | AUC(0-t) [1, 11]: 6020 ± 6580 ng·h/mL | Tmax [1, 11]: 2.42 ± 1.64 h | half-life [1, 11]: 5.4 ± 4.57 h | Cmax ([1]; plasma, 3 tablets (1500 mg/30 mg), mean ± S.D., n = 12, read-out: C max): 2480 ± 1430 ng/mL | k el [1, 12]: 7.5e-05 s⁻¹ | MRT last [1, 12]: 3.65 ± 1.33 h | Vd/F [1, 12]: 5200 ± 6650 L | Cmax ([1]; plasma, 3 tablets, read-out: C max): 2480 ± 1430 ng/mL | R.E.% of response, stock solution stability [2, 13]: −5.8% | R.E.% of response, stock solution stability [2, 14]: −1.1% | Found C [3, 15]: 9.6 ng/mL | Found R.E. [3, 15]: −3.7% | Found C [3, 16]: 62.7 ng/mL | Found R.E. [3, 16]: 4.5% | Found C [3, 17]: 578.3 ng/mL | Found R.E. [3, 17]: −3.6% | Found C [3, 18]: 9.6 ng/mL | Found R.E. [3, 18]: −4.1% | Found C [3, 19]: 53.7 ng/mL | Found R.E. [3, 19]: −10.6% | Found C [3, 20]: 595.3 ng/mL | Found R.E. [3, 20]: −0.8% | Found C [3, 21]: 9.1 ng/mL | Found R.E. [3, 21]: −8.9% | Found C [3, 22]: 58.8 ng/mL | Found R.E. [3, 22]: −2.1% | Found C [3, 23]: 636.3 ng/mL | Found R.E. [3, 23]: 6.0% | Found C [3, 24]: 9.5 ng/mL | Found R.E. [3, 24]: −4.6% | Found C [3, 25]: 58.0 ng/mL | Found R.E. [3, 25]: −3.28% | Found C [3, 26]: 546.3 ng/mL | Found R.E. [3, 26]: −9.0% | stability in human plasma [3]: did not reveal any significant degradation

O=C(O)CNC(=O)c1cccnc1 [NUA, nicotinuric acid]
CLz/F [1, 4]: 287.8 ± 128.2 L/h | CLz/F [1, 5]: 224.8 ± 91.90 L/h | CLz/F [1, 6]: 189.3 ± 94.20 L/h | AUC(0-t) ([1]; in vivo, 1 tablet): 2150 ± 1360 ng·h/mL | AUC(0-inf) [1, 27]: 2180 ± 1370 ng·h/mL | AUC(0-t) [1, 27]: 2150 ± 1360 ng·h/mL | Tmax [1, 27]: 2.06 ± 1.6 h | half-life [1, 27]: 1.7 ± 0.801 h | Cmax ([1]; in vivo, 1 tablet (500 mg/10 mg), mean ± S.D., n = 12, read-out: C max): 836 ± 399 ng/mL | k el [1, 28]: 0.000147 s⁻¹ | MRT last [1, 28]: 2.91 ± 0.74 h | Vd/F [1, 28]: 649 ± 338 L | Cmax ([1]; in vivo, 1 tablet, read-out: mean maximum plasma concentration (C max)): 836 ± 399 ng/mL | AUC(0-t) ([1]; in vivo, 2 tablets): 5400 ± 3220 ng·h/mL | AUC(0-inf) [1, 29]: 5480 ± 3250 ng·h/mL | AUC(0-t) [1, 29]: 5400 ± 3220 ng·h/mL | Tmax [1, 29]: 3.03 ± 2.19 h | half-life [1, 29]: 2.55 ± 1.26 h | Cmax ([1]; in vivo, 2 tablets (1000 mg/20 mg), mean ± S.D., n = 12, read-out: C max): 1630 ± 636 ng/mL | k el [1, 30]: 9.17e-05 s⁻¹ | MRT last [1, 30]: 3.6 ± 1.32 h | Vd/F [1, 30]: 821 ± 523 L | Cmax ([1]; in vivo, 2 tablets, read-out: C max): 1630 ± 636 ng/mL | AUC(0-t) ([1]; in vivo, 3 tablets): 10200 ± 7080 ng·h/mL | AUC(0-inf) [1, 31]: 10200 ± 7090 ng·h/mL | AUC(0-t) [1, 31]: 10200 ± 7080 ng·h/mL | Tmax [1, 31]: 2.33 ± 1.05 h | half-life [1, 31]: 2.72 ± 1.83 h | Cmax ([1]; in vivo, 3 tablets (1500 mg/30 mg), mean ± S.D., n = 12, read-out: C max): 2790 ± 1040 ng/mL | k el [1, 32]: 9.17e-05 s⁻¹ | MRT last [1, 32]: 3.79 ± 1.11 h | Vd/F [1, 32]: 696 ± 458 L | Cmax ([1]; in vivo, 3 tablets, read-out: C max): 2790 ± 1040 ng/mL | R.E.% of response, stock solution stability [2, 13]: −1.6% | R.E.% of response, stock solution stability [2, 14]: 0.8% | Found C [3, 15]: 10.7 ng/mL | Found R.E. [3, 15]: 7.3% | Found C [3, 16]: 67.0 ng/mL | Found R.E. [3, 16]: 11.7% | Found C [3, 17]: 598.3 ng/mL | Found R.E. [3, 17]: −0.3% | Found C [3, 18]: 10.6 ng/mL | Found R.E. [3, 18]: 6.4% | Found C [3, 19]: 59.1 ng/mL | Found R.E. [3, 19]: −1.5% | Found C [3, 20]: 579.3 ng/mL | Found R.E. [3, 20]: −3.4% | Found C [3, 21]: 11.0 ng/mL | Found R.E. [3, 21]: 9.7% | Found C [3, 22]: 63.6 ng/mL | Found R.E. [3, 22]: 5.9% | Found C [3, 23]: 628.7 ng/mL | Found R.E. [3, 23]: 4.8% | Found C [3, 24]: 10.8 ng/mL | Found R.E. [3, 24]: 8.3% | Found C [3, 25]: 63.3 ng/mL | Found R.E. [3, 25]: 5.6% | Found C [3, 26]: 618.3 ng/mL | Found R.E. [3, 26]: 3.1% | stability in human plasma [3]: did not reveal any significant degradation
